Experimental data as given in patent publication EP4623908A1, “USE OF (-)-EPIGALLOCATECHIN GALLATE COMPOUND” (CF Pharmtech, Inc., priority 2022, dated 2024).

Experiments:
[1] = test system: Bleomycin-Induced Pulmonary Fibrosis in Mice; assay: Bleomycin-induced pulmonary fibrosis model in mice (Example 4); format: in vivo, C57BL/6J mice; settings: for Hydroxyproline Content: mouse lung tissue, Mean±SEM
Protocol: A total of 56 male C57BL/6J mice, SPF grade, aged 7-10 weeks, with a body weight range of 20-35g, were purchased from SPF (Beijing) Biotechnology Co., Ltd..
Injectable Bleomycin (BLM, 15mg/vial, batch number 20067411): Hanhui Pharmaceutical Co., Ltd. • Solvent 1: Components include purified water, citric acid, and sodium citrate, a transparent, clear liquid. • Solvent 2: Sodium chloride injection (batch number K21080307), purchased from Hanhui Pharmaceuticals Co., Ltd (formerly Hisun-Pfizer Pharmaceuticals Co., Ltd.). • Hydroxyproline (HYP) assay kit: Purchased from Merck Sigma-Aldrich.
The mice were randomly divided into the following groups, with 8 mice in each group: • Sham operation group (normal control group), • Pulmonary fibrosis model group, • Oral gavage group, • Tracheal Nebulization groups 1-4.
On Day 1 (D1), the normal control group mice were administered solvent 2 (sodium chloride injection, 1 mL/kg) via tracheal nebulization. All other groups were administered bleomycin (2 mg/kg, 1 mL/kg) via tracheal nebulization in the morning and afternoon to construct the pulmonary fibrosis model.
The oral gavage dose for mice was 100 mg/kg (calculated based on the oral dose of 60 mg/kg for rats, according to FDA guidelines, and converted for equivalent oral dosage in mice by body surface area). The tracheal nebulization doses were 0.2 mg/kg, 0.4 mg/kg, 0.8 mg/kg, and 1.6 mg/kg. Both the normal control group and the pulmonary fibrosis model group were administered solvent 1 via tracheal nebulization once a day, starting on D10 post-model induction.
Mice from each group were anesthetized on Day 22 via intraperitoneal injection of chloral hydrate (50 mg/mL, 0.1 mL/10g) and sacrificed by abdominal aorta blood collection. All animals underwent dissection, and lung tissues were preserved. The total lung weight (including animals that died unexpectedly or were euthanized) was measured. The left lung was excised and stored at below -60°C for hydroxyproline content testing. The remaining right lung tissue and bronchioles were fixed in 10% neutral-buffered formalin and processed for routine histology: paraffin embedding, sectioning, HE staining, and Masson staining.
Lung coefficient = lung weight (mg)/body weight (g). [formula] Early-stage inflammation with infiltration of inflammatory cells, followed by the proliferation of fibroblasts and excessive collagen deposition, leads to an increase in lung coefficient. Thus, the lung coefficient serves as an indirect indicator of the inflammation and fibrosis degree in mice.
Mice were weighed prior to grouping, on the model induction day, after the first drug administration, and every 3 days thereafter. […] Changes in body weight reflect the effect of the drug administration. Statistical analysis was performed using two-way ANOVA and Tukey's multiple comparison test.
Lung tissue inflammation, fibroproliferation, and other pathological changes were evaluated by optical microscopy on HE-stained sections. Masson staining was used to assess the degree of fibrosis in lung tissue. Standardized terminology was applied to classify fibrosis, inflammatory cell infiltration, alveolar hemorrhage, dilation, epithelial hyperplasia, and fibrous exudate using a 4-point scale (mild, moderate, severe, and very severe).
Hydroxyproline content in lung tissue was measured according to the instructions of the assay kit.
Statistical tests commonly used in the field, such as Student's t-test, chi-square test, Mann-Whitney U test, Kruskal-Wallis test (H test), Jonckheere-Terpstra test, and Wilcoxon test, were performed. Statistical analysis was done using SPSS (13.0) software. Results are presented as mean ± standard error. Overall differences were evaluated by One-Way ANOVA for homogeneity of variance, followed by Dunnett's test for inter-group comparisons. When normality tests failed, Kruskal-Wallis test was used for inter-group comparisons. Two-Way ANOVA and Tukey's test were used for multiple comparisons between groups. […]

[2] = target: T1, lysyl oxidase-like protein-2 (LOXL2) (Homo sapiens, UniProt Q9Y4K0); settings: cited from earlier work
T1 sequence (Q9Y4K0 26-774): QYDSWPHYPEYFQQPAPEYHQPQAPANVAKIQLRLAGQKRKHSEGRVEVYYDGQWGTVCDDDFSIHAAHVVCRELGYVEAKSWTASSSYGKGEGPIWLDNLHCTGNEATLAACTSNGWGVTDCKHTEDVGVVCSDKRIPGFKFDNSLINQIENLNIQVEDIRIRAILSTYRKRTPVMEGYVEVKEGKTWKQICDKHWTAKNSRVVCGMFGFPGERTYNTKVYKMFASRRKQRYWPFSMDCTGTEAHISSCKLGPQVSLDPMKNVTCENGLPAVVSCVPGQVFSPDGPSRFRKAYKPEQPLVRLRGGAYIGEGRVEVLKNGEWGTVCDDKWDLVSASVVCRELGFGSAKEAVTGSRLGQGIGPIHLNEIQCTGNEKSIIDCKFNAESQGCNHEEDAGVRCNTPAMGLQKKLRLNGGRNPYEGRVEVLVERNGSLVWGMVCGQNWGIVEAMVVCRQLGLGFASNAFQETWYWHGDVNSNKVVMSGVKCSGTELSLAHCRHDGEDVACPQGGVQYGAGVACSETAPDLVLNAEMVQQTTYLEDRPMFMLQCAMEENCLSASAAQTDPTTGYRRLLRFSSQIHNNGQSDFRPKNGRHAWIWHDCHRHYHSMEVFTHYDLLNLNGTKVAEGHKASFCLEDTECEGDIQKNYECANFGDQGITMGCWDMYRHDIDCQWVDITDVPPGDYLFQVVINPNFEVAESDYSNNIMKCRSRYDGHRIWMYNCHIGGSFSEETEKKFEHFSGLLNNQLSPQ

[3] = cited from earlier work

O=C(O[C@@H]1Cc2c(O)cc(O)cc2O[C@@H]1c1cc(O)c(O)c(O)c1)c1cc(O)c(O)c(O)c1 [EGCG, (-)-Epigallocatechin gallate]
fibrosis score vs model group ([1]; aerosol dose 0.4mg/kg or higher, P < 0.05): significant reduction in pulmonary fibrosis
inhibiting alveolar expansion ([1]; all tracheal nebulization groups (0.2, 0.4, 0.8, 1.6mg/kg), 0.4mg/kg most effective): significant differences compared to the model group
inhibiting inflammatory cell infiltration ([1]; all tracheal nebulization groups, 0.4mg/kg best (P < 0.05)): reduced inflammatory cell infiltration
fibrosis in the lungs (Masson's staining) ([1]; inhaling 0.8mg/kg and 1.6mg/kg, D22): almost close to the level of the healthy control group
Hydroxyproline Content ([1]; D22, Inh. 0.2mg/kg once a day from D10): 2.807 ± 0.3982 µg/µL
Hydroxyproline Content ([1]; D22, Inh. 0.4mg/kg once a day from D10): 2.046 ± 0.690 µg/µL
Hydroxyproline Content ([1]; D22, Inh. 0.8mg/kg once a day from D10): 1.033 ± 0.1476 µg/µL
Hydroxyproline Content ([1]; D22, Inh. 1.6 mg/kg once a day from D10): 1.67 ± 0.1888 µg/µL
Hydroxyproline Content ([1]; D22, P.O 100mg/kg once a day from D10): 1.928 ± 0.1326 µg/µL
collagen deposition (Masson's staining) vs model group ([1]; oral administration 100 mg/kg, difference not significant, D22): decreased slightly
lung tissue histopathology (H&E staining) ([1]; oral administration 100 mg/kg, no significant difference vs model group, D22): slight improvement in lung tissue morphology
inhibiting inflammatory cell infiltration ([1]; oral administration (oral gavage) 100 mg/kg): no anti-inflammatory effect
alveolar inflammation scores vs model group ([1]; oral gavage 100 mg/kg): no significant difference
body weight ([1]; oral gavage 100 mg/kg): weight gain in the oral gavage group was slower
fibrosis score vs model group ([1]; oral gavage 100 mg/kg): did not show a significant difference
lung coefficient vs model group ([1]; oral gavage 100 mg/kg): did not show a significant difference
alveolar inflammation scores vs model group ([1]; tracheal nebulization): significantly suppressed the further development of alveolar inflammation
inhibiting alveolar hemorrhage ([1]; tracheal nebulization 0.2mg/kg and 0.4mg/kg): significantly better than the oral gavage group
lung coefficient vs model group ([1]; tracheal nebulization 0.2mg/kg and 0.4mg/kg, P < 0.01, P < 0.001): significantly reduced
body weight ([1]; tracheal nebulization 0.2mg/kg and 0.4mg/kg, significant vs model group): returned to baseline levels by Day 22
hydroxyproline content in lung tissue (in words) ([1]; tracheal nebulization 0.2mg/kg, 0.4mg/kg, and 0.8mg/kg, D22): dose-dependently reduced
inhibiting alveolar fibrous exudates ([1]; tracheal nebulization 1.6mg/kg): significant differences compared to the model group
lung tissue histopathology (H&E staining) ([1]; tracheal nebulization, best at 0.4mg/kg and 0.8mg/kg, D22): reduced alveolar interstitial proliferation
collagen deposition (Masson's staining) vs model group ([1]; tracheal nebulization, dose-response, especially 0.4mg/kg and above, D22): significantly reduced collagen deposition
inhibition of LOXL2 [2]: effectively inhibit
serum transaminases ([3]; daily oral intake at doses equal to or higher than 800 mg): significantly increased serum transaminases
body weight of patients ([3]; oral): significantly reduce the body weight
